Results reported in patent US12606541B2, “PPARg modulators and methods of use” (Eisai R&D Management Co., Ltd., priority 2020, dated 2026).

Target: T1, His6-TEV-PPARγ-(234-505) (Homo sapiens, UniProt P37231)
T1 construct: The His6-TEV-PPARγ-(234-505) protein for assay was expressed and purified; TEV cleavage site (N); made in house
T1 sequence (P37231 234-505): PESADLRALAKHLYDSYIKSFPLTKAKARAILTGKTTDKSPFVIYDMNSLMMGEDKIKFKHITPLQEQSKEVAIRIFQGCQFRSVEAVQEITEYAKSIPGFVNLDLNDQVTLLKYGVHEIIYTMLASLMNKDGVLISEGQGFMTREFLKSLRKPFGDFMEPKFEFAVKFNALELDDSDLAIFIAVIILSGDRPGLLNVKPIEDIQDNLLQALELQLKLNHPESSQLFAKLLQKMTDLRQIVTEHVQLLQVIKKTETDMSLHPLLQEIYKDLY
Test: TR-FRET Assay to Measure Co-R Peptide Recruitment to PPARγ
Type: biochemical
Details: Co-R peptide recruitment to PPARγ; read-out: TR-FRET AC50
Procedure, shortened: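 His-tagged PPARγ (or controls) was preincubated with compound for 20 minutes at room temperature, then 5 nM anti-His terbium antibody and 200 nM FITC-labeled SMRT-ID2 corepressor peptide (final) were added for a further hour. TR-FRET signal was normalized to percent response using 500 nM T0070907 and DMSO controls.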

AC50	SMILES
> 1 µM	COc1cc(-c2cc(C(=O)N3CC[C@@H](C(=O)NC4CCS(=N)(=O)CC4)CC34CC4)n[nH]2)c(F)cn1 (stereo partly drawn) [(7R)-4-[5-(5-fluoro-2-methoxypyridin-4-yl)-1H-pyrazole-3-carbonyl]-N-(1-imino-1-oxo-1λ^6-thian-4-yl)-4-azaspiro[2.5]octane-7-carboxamide]
> 1 µM	Cc1cc(CNC(=O)C2CCN(C(=O)c3cc(-c4ccncc4)[nH]n3)CC2)sc1C [N-[(4,5-dimethylthiophen-2-yl)methyl]-1-[5-(pyridin-4-yl)-1H-pyrazole-3-carbonyl]piperidine-4-carboxamide]
> 1 µM	COc1cc(-c2cc(C(=O)N3CCC(C(=O)NCC4CCCO4)CC3)n[nH]2)c(Cl)cn1 (stereo not shown) [1-[5-(5-chloro-2-methoxypyridin-4-yl)-1H-pyrazole-3-carbonyl]-N-[(oxolan-2-yl)methyl]piperidine-4-carboxamide]
> 1 µM	O=C(NCc1cc(Cl)ccc1Cl)C1CCN(C(=O)c2cc(-c3cccnc3)[nH]n2)CC1 [N-[(2,5-dichlorophenyl)methyl]-1-[5-(pyridin-3-yl)-1H-pyrazole-3-carbonyl]piperidine-4-carboxamide]
> 1 µM	COc1cc(-c2cc(C(=O)N3CC4CCC(C3)C4C(=O)NCc3cccc(Cl)c3)n[nH]2)c(F)cn1 (stereo not shown) [N-[(3-chlorophenyl)methyl]-3-[5-(5-fluoro-2-methoxypyridin-4-yl)-1H-pyrazole-3-carbonyl]-3-azabicyclo[3.2.1]octane-8-carboxamide]
> 1 µM	O=C(Nc1cccnn1)C1CCN(C(=O)c2cc(-c3ccncc3)[nH]n2)CC1 [N-(pyridazin-3-yl)-1-[5-(pyridin-4-yl)-1H-pyrazole-3-carbonyl]piperidine-4-carboxamide]
> 1 µM	O=C(N[C@@H]1CCN(Cc2ccccc2)C1)C1CCN(C(=O)c2cc(-c3ccncc3)[nH]n2)CC1 [N-[(3R)-1-benzylpyrrolidin-3-yl]-1-[5-(pyridin-4-yl)-1H-pyrazole-3-carbonyl]piperidine-4-carboxamide]
> 1 µM	Cc1nc(CNC(=O)C2CCN(C(=O)c3cc(-c4ccncc4)[nH]n3)CC2)sc1C [N-[(4,5-dimethyl-1,3-thiazol-2-yl)methyl]-1-[5-(pyridin-4-yl)-1H-pyrazole-3-carbonyl]piperidine-4-carboxamide]
> 1 µM	COc1cc(-c2cc(C(=O)N3CCC(C(=O)NCc4cccc(C)n4)CC3)n[nH]2)c(Cl)cn1 [1-[5-(5-chloro-2-methoxypyridin-4-yl)-1H-pyrazole-3-carbonyl]-N-[(6-methylpyridin-2-yl)methyl]piperidine-4-carboxamide]
> 1 µM	CC1CCC(NC(=O)C2CCN(C(=O)c3cc(-c4ccnc(N(C)C)c4)[nH]n3)CC2)CC1 (stereo not shown) [1-{5-[2-(dimethylamino)pyridin-4-yl]-1H-pyrazole-3-carbonyl}-N-(4-methylcyclohexyl)piperidine-4-carboxamide]
> 1 µM	O=C(NCc1cccc(Cl)c1)C1CCN(C(=O)c2cc(-c3ccncc3)[nH]n2)CC1 [N-[(3-chlorophenyl)methyl]-1-[5-(pyridin-4-yl)-1H-pyrazole-3-carbonyl]piperidine-4-carboxamide]
> 1 µM	CC1CCN(C(=O)C2CCN(C(=O)c3cc(-c4ccncc4)[nH]n3)CC2)CC1 [4-{3-[4-(4-methylpiperidine-1-carbonyl)piperidine-1-carbonyl]-1H-pyrazol-5-yl}pyridine]
> 1 µM	O=C(NCc1cnc2c(c1)CCC2)C1CCN(C(=O)c2cc(-c3ccncc3)[nH]n2)CC1 [N-({5H,6H,7H-cyclopenta[b]pyridin-3-yl}methyl)-1-[5-(pyridin-4-yl)-1H-pyrazole-3-carbonyl]piperidine-4-carboxamide]
> 1 µM	O=C(NC1CCC(c2ccccc2)CC1)C1CCN(C(=O)c2cc(-c3cccnc3)[nH]n2)CC1 (stereo not shown) [N-(4-phenylcyclohexyl)-1-[5-(pyridin-3-yl)-1H-pyrazole-3-carbonyl]piperidine-4-carboxamide]
> 1 µM	O=C(N[C@@H]1CCN(Cc2ccccc2)C1)C1CCN(C(=O)c2cc(-c3cccnc3)[nH]n2)CC1 [N-[(3R)-1-benzylpyrrolidin-3-yl]-1-[5-(pyridin-3-yl)-1H-pyrazole-3-carbonyl]piperidine-4-carboxamide]
> 1 µM	O=C(NC1CCCCC1)C1CCN(C(=O)c2cc(-c3ccncc3)[nH]n2)CC1 [N-cyclohexyl-1-[5-(pyridin-4-yl)-1H-pyrazole-3-carbonyl]piperidine-4-carboxamide]
> 1 µM	COc1cc(-c2cc(C(=O)N3CCC(C(=O)NC45COC(C4)C5)CC3)n[nH]2)c(Cl)cn1 [1-[5-(5-chloro-2-methoxypyridin-4-yl)-1H-pyrazole-3-carbonyl]-N-{2-oxabicyclo[2.1.1]hexan-4-yl}piperidine-4-carboxamide]

The next lines start with the molecule.

SMILES	AC50
COc1cc(-c2cc(C(=O)N3CCC(C(=O)NCc4c(F)ccc(C)c4F)CC3)n[nH]2)c(Cl)cn1 [1-[5-(5-chloro-2-methoxypyridin-4-yl)-1H-pyrazole-3-carbonyl]-N-[(2,6-difluoro-3-methylphenyl)methyl]piperidine-4-carboxamide]	> 1 µM
CC1CCC(NC(=O)C2CCN(C(=O)c3cc(-c4ccnc(C(=O)O)c4)[nH]n3)CC2)CC1 (stereo not shown)	> 1 µM
COc1cc(-c2cc(C(=O)N3CCC(C(=O)NCc4cn5cccnc5n4)CC3)n[nH]2)c(Cl)cn1 [1-[5-(5-chloro-2-methoxypyridin-4-yl)-1H-pyrazole-3-carbonyl]-N-({imidazo[1,2-a]pyrimidin-2-yl}methyl)piperidine-4-carboxamide]	> 1 µM
COc1nccc(-c2cc(C(=O)N3CCC(C(=O)NC4CCC(C)CC4)CC3)n[nH]2)c1C (stereo not shown) [1-[5-(2-methoxy-3-methylpyridin-4-yl)-1H-pyrazole-3-carbonyl]-N-(4-methylcyclohexyl)piperidine-4-carboxamide]	> 1 µM
COc1cc(-c2cc(C(=O)N3CCC(C(=O)NCc4ccn5c(C)c(C)nc5c4)CC3)n[nH]2)c(Cl)cn1 [1-[5-(5-chloro-2-methoxypyridin-4-yl)-1H-pyrazole-3-carbonyl]-N-({2,3-dimethylimidazo[1,2-a]pyridin-7-yl}methyl)piperidine-4-carboxamide]	> 1 µM
COc1cc(-c2cc(C(=O)N3CCC(C(=O)NCC4CC(=O)N(C)C4)CC3)n[nH]2)c(Cl)cn1 (stereo not shown) [1-[5-(5-chloro-2-methoxypyridin-4-yl)-1H-pyrazole-3-carbonyl]-N-[(1-methyl-5-oxopyrrolidin-3-yl)methyl]piperidine-4-carboxamide]	> 1 µM
COc1cc(-c2cc(C(=O)N3CCC(C(=O)NCC4COCCO4)CC3)n[nH]2)c(Cl)cn1 (stereo not shown) [1-[5-(5-chloro-2-methoxypyridin-4-yl)-1H-pyrazole-3-carbonyl]-N-[(1,4-dioxan-2-yl)methyl]piperidine-4-carboxamide]	> 1 µM
CCC1CCC(NC(=O)C2CCN(C(=O)c3cc(-c4ccncc4)[nH]n3)CC2)CC1 (stereo not shown)	> 1 µM
COc1cc(-c2cc(C(=O)N3CCC(C#N)(C(=O)NCc4cccc(Cl)c4)CC3)n[nH]2)c(Cl)cn1 [1-[5-(5-chloro-2-methoxypyridin-4-yl)-1H-pyrazole-3-carbonyl]-N-[(3-chlorophenyl)methyl]-4-cyanopiperidine-4-carboxamide]	> 1 µM
COc1cc(-c2cc(C(=O)N3CCC(C(=O)Nc4cnnc5ccccc45)CC3)n[nH]2)c(Cl)cn1 [1-[5-(5-chloro-2-methoxypyridin-4-yl)-1H-pyrazole-3-carbonyl]-N-(cinnolin-4-yl)piperidine-4-carboxamide]	> 1 µM
COc1cc(-c2cc(C(=O)N3CCC(C(=O)NCc4c(C)cc(C)[nH]c4=O)CC3)n[nH]2)c(Cl)cn1 [1-[5-(5-chloro-2-methoxypyridin-4-yl)-1H-pyrazole-3-carbonyl]-N-[(4,6-dimethyl-2-oxo-1,2-dihydropyridin-3-yl)methyl]piperidine-4-carboxamide]	> 1 µM
COc1cc(-c2cc(C(=O)N3CCC(C(=O)NC4CCC(=O)CC4)CC3)n[nH]2)ccn1 [1-[5-(2-methoxypyridin-4-yl)-1H-pyrazole-3-carbonyl]-N-(4-oxocyclohexyl)piperidine-4-carboxamide]	> 1 µM
COc1cc(-c2cc(C(=O)N3CCC(C(=O)NCc4nc5cccnc5[nH]4)CC3)n[nH]2)c(Cl)cn1 [1-[5-(5-chloro-2-methoxypyridin-4-yl)-1H-pyrazole-3-carbonyl]-N-({3H-imidazo[4,5-b]pyridin-2-yl}methyl)piperidine-4-carboxamide]	> 1 µM
COc1cc(-c2cc(C(=O)N3CCC(C(=O)NCc4ccccc4C#N)CC3)n[nH]2)c(Cl)cn1 [1-[5-(5-chloro-2-methoxypyridin-4-yl)-1H-pyrazole-3-carbonyl]-N-[(2-cyanophenyl)methyl]piperidine-4-carboxamide]	> 1 µM
O=C(N[C@H]1CC[C@@](O)(C(F)(F)F)CC1)C1CCN(C(=O)c2cc(-c3cc(OC4COC4)ncc3F)[nH]n2)C2(CC2)C1 (stereo partly shown)	> 1 µM
COc1cc(-c2cc(C(=O)N3CCC(C(=O)NCc4cnc5nccn5c4)CC3)n[nH]2)c(Cl)cn1 [1-[5-(5-chloro-2-methoxypyridin-4-yl)-1H-pyrazole-3-carbonyl]-N-({imidazo[1,2-a]pyrimidin-6-yl}methyl)piperidine-4-carboxamide]	> 1 µM
COc1cc(-c2cc(C(=O)N3CCC(C(=O)NCc4nc(C)c(C)s4)CC3)n[nH]2)c(Cl)cn1 [1-[5-(5-chloro-2-methoxypyridin-4-yl)-1H-pyrazole-3-carbonyl]-N-[(4,5-dimethyl-1,3-thiazol-2-yl)methyl]piperidine-4-carboxamide]	> 1 µM
